Measured values published in patent US7572463B2, “Oral dosage forms” (Gruenenthal GmbH, priority 1999, dated 2009).
Where a name gives a salt, the structure may show the parent alone.

What was measured:
[1] = In-vitro release profile, European Pharmacopoeia basket apparatus, synthetic gastric then intestinal juices, HPLC; format: physicochemical
Procedure: The release profiles of the oral dosage forms according to the invention were determined as follows:
The dosage forms according to the invention were tested in the European Pharmacopoeia basket apparatus at a temperature of the released medium of 37±0.5° C., and at a rate of 50 rpm for 2 hours in 600 ml synthetic gastric juices without enzymes at pH 1.2. Following this, the dosage form was tested for a further 8 hours in 900 ml synthetic intestinal juices without enzymes at pH 7.2. The quantity of active substance released at a given time was determined in each case by means of HPLC. The values shown are average values based in each case on 3 samples. The invention will be explained below with reference to examples.
(§1) The release profile was determined according to the method indicated above using the basket apparatus and this is reproduced in the following Table 1 and in FIG. 1 (as a percentage of the total dose, calculated as tramadol hydrochloride). By way of deviation from the conditions described above, the coated pellets were tested for 18 hours in synthetic intestinal juices without enzymes at pH 7.2.
as §1, with “2” for “1”, “10” for “18”

[2] = Water solubility of the active-substance salts (saturated solution in deionised water, HPLC); format: physicochemical; conditions: 25° C., 20 hours stirring
Procedure: The water solubility of the active-substance salts was determined as follows:
The quantity of the relevant active-substance salts required for this may optionally be determined by means of preliminary experiments.
After the un-dissolved active-substance salt had been allowed to settle, the clear supernatant was removed by pipette and centrifuged at rate of at least 3000 rpm for five minutes.

[3] = salt in the ethyl cellulose coated pellets of Example 2
[4] = salt in the shellac coated pellets of Example 3, tests in synthetic intestinal juices

SMILES: COc1cccc(C2(O)CCCCC2CN(C)C)c1.O=C(O)Cc1ccccc1Nc1c(Cl)cccc1Cl (stereo not drawn) [[1e-(m-methoxyphenyl)-2e-dimethylaminomethyl-cyclohexane-1(a)-ol]-[2-(2′,6′-dichloranilino)-phenylacetate]]
- period over which tramadol is released in a retarded manner from the salt [1, 3]: 10 h
- period over which tramadol is released in a retarded manner from the salt [1, 4]: 8 h

SMILES: COc1cccc(C2(O)CCCCC2CN(C)C)c1 (stereo not drawn) [tramadol hydrochloride]
- solubility at 20 h ([2]; thermodynamic from solid): > 300 mg/mL
- release of the active substance tramadol from the salt (in words) [1, 3]: released very rapidly
- release of the active substance tramadol from the salt (in words) [1, 4]: released very rapidly

SMILES: COc1cccc(C2(O)CCCCC2CN(C)C)c1.O=C1NS(=O)(=O)c2ccccc21 (stereo not drawn) [tramadolsaccharinate]
- water solubility [2]: approx. 20 mg/ml
